{"source": "patent US20250017907A1", "about": "“METHOD FOR PREVENTING AND/OR TREATING LIVER FIBROSIS BY USING 6-METHOXYBENZOXAZOLINONE AND COIX LACHRYMA-JOBI L. EXTRACT COMPRISING 6-METHOXYBENZOXAZOLINONE” (Taichung District Agricultural Research and Extension …, priority 2023, published 2025)", "test_system": "TAA-induced liver fibrotic C57BL/6J mice", "assay": "Oxidative stress indicator tests in liver (SOD, CAT, GSH, MDA)", "type": "in vivo", "conditions": "6 weeks, vs TAA group", "method": "For tests of CX, mice were randomly divided into the following four groups (n=8, per group): (1) NT group, (2) TAA group (200 mg/kg), (3) CX group (CX20, 20 mg/kg), and (4) CX group (CX50, 50 mg/kg). NT group received pure saline, and other groups intraperitoneally injected with TAA dissolved into saline thrice a week. Moreover, NT group and TAA group also received 5% propylene glycol, while CX groups received CX dissolved into 5% propylene glycol (prepared in 0.9% saline) by oral gavage once per day.\nTo examine the effects of CX on liver fibrosis, this example established a TAA-induced liver fibrotic C57BL/6J mouse model. FIG. 6 is a schematic diagram of animal experiment design in 6-methoxybenzoxazolinone (6-MBOA) (CX) groups. For animal experiments, 6-week-old C57BL/6J mice were randomly divided into four groups including NT, TAA, CX20 (TAA+20 mg/kg CX), CX50 (TAA+50 mg/kg CX). (n=8 per group). Mice were given intraperitoneal injection of TAA thrice a week to induce liver fibrosis; they also received CX or the vehicle by oral gavage once per day. At the end of animal tests, mice were sacrificed at 12 weeks of age. Six-week-old mice were randomly divided into four groups, namely NT, TAA, CX20 and CX50 (FIG. 6). Among these groups, only the NT group was oral gavaged and administered with vehicle, the TAA group was oral gavaged with vehicle and administered with TAA, and the CX groups were oral gavaged with CX and administered with TAA. Oral gavage was performed once a day while intraperitoneal injection was given thrice a week; both oral gavage and intraperitoneal injection were continuously administered for six weeks. After that, the mice were sacrificed, and their liver tissues and serum were collected for subsequent analyses.\nThe procedure of oxidative stress indicator tests is as follows. The enzyme activity of catalase (CAT) and superoxide dismutase (SOD), the content of malondialdehyde (MDA), and the concentration of glutathione (GSH) in tissue were tested to examine changes in oxidative stress levels in TAA-induced liver fibrotic mice. […] All of the kits were commercial products, the working protocol followed the manufacturer's instructions. Briefly, the liver tissue was homogenized in ice-cold buffer and centrifuged at 4° C., then collected supernatant for analysis, finally, read the absorbance of samples with ELISA reader (TECAN, Switzerland).", "data": [{"smiles": "COc1ccc2[nH]c(=O)oc2c1", "note": "[CX, 6-methoxybenzoxazolinone]", "values": [{"measurement": "liver CAT activity", "setting": "CX20: 20 mg/kg oral", "result": "increased"}, {"measurement": "liver GSH content", "setting": "CX20: 20 mg/kg oral", "result": "increased"}, {"measurement": "liver MDA content", "setting": "CX20: 20 mg/kg oral", "result": "decreased"}, {"measurement": "liver CAT activity", "setting": "CX50: 50 mg/kg oral", "result": "increased"}, {"measurement": "liver GSH content", "setting": "CX50: 50 mg/kg oral", "result": "increased"}, {"measurement": "liver MDA content", "setting": "CX50: 50 mg/kg oral", "result": "decreased"}, {"measurement": "liver SOD activity", "setting": "CX50: 50 mg/kg oral", "result": "significantly increased"}]}]}
